Measured values as given in US11331299B2, “Medicinal use of serrulatane diterpenes” (The University of Sydney, priority 2016, dated 2022).
pEC50, pIC50: −log10 of the molar value. Where two headings read alike, the source gives them in different places.

Tested on: 280 human cancer cell lines
Test: OncoPanel cell proliferation assay (10-day)
Type: cell-based
Settings: for pEC50: read-out: Cell Count EC50; for pIC50: read-out: Cell Count IC50
[1] = Homo sapiens, 22Rv1, 22Rv1, Prostate
[2] = Homo sapiens, 786-0, 786-O, Kidney
[3] = Homo sapiens, A7, Skin (Melanoma)
[4] = Homo sapiens, A101D, Skin (Melanoma)
[5] = Homo sapiens, A 172, A172, CNS - Glioma
[6] = Homo sapiens, A253, A-253, Head and Neck
[7] = Homo sapiens, A388, Head and Neck
[8] = Homo sapiens, A498, A498, Kidney
[9] = Homo sapiens, A673, A-673, Soft Tissue - Sarcoma
[10] = Homo sapiens, A704, A-704, Kidney
[11] = Homo sapiens, A-375, A375, Skin (Melanoma)
[12] = Homo sapiens, A-427, A427, Lung - NSCLC
[13] = Homo sapiens, A-431, A431, Head and Neck
[14] = Homo sapiens, AN3-CA, AN3 CA, Female GU - Uterus
[15] = Homo sapiens, ARH-77, ARH-77, Myeloma
[16] = Homo sapiens, ASPC1, AsPC-1, Pancreas
[17] = Homo sapiens, AU565, AU565, Breast
[18] = Homo sapiens, BCP-1, BCP-1, Lymphoma
[19] = Homo sapiens, BE(2)-C, BE(2)C, CNS - Neuroblastoma
[20] = Homo sapiens, BFTC-905, BFTC-905, Bladder
[21] = Homo sapiens, BHT-101, BHT-101, Endocrine - Thyroid
[22] = Homo sapiens, BM-1604, BM-1604, Prostate
[23] = Homo sapiens, BPH-1, BPH1, Prostate
[24] = Homo sapiens, BT-20, BT20, Breast

## CC(C)=CCC[C@@H]1C(O)Oc2c(C)cc(O)c3c2[C@H]1CC[C@H]3C (stereo partly shown) [Compound 2, 5,18-epoxyserrulat-14-en-8,18-diol]
GI50 range 0.03-0.099 μM, of 280 cell types
  Number of cell types, GI Activity Potent: 1
GI50 range 0.1-0.99 μM, of 280 cell types
  Number of cell types, GI Activity moderately potent: 1
GI50 range 1-2.99 μM, of 280 cell types
  Number of cell types, GI Activity Strong: 8
GI50 range 3-9.99 μM, of 280 cell types
  Number of cell types, GI Activity moderately strong: 110
GI50 range 10-30.00 μM, of 280 cell types
  Number of cell types, GI Activity weak: 118
GI50 range >30 μM, of 280 cell types
  Number of cell types, GI Activity very weak: 42
Homo sapiens, 10 cell lines with potent to strong activity, read-out: GI50
  GI50: 0.06 to 2.96 µM
[1]
  pEC50: 4.94
  pIC50: 4.94
Homo sapiens, 22Rv1, 22Rv1, Prostate, read-out: Cell Count GI50
  GI50: 11.3 µM
Homo sapiens, 647-V, Bladder
  pEC50: 4.95
  pIC50: 4.95
Homo sapiens, 647-V, Bladder, read-out: Cell Count GI50
  GI50: 11.2 µM
Homo sapiens, 769-P, Kidney
  pEC50: 5.16
  pIC50: 5.16
Homo sapiens, 769-P, Kidney, read-out: Cell Count GI50
  GI50: 6.94 µM
[2]
  pEC50: 4.55
  pIC50: 4.55
Homo sapiens, 786-0, 786-O, Kidney, read-out: Cell Count GI50
  GI50: 27.9 µM
Homo sapiens, 5637, Bladder
  pEC50: < 4.52
  pIC50: < 4.52
Homo sapiens, 5637, Bladder, read-out: Cell Count GI50
  GI50: > 30 µM
[3]
  pEC50: 5.26
  pIC50: 5.25
Homo sapiens, A7, Skin (Melanoma), read-out: Cell Count GI50
  GI50: 5.6 µM
[4]
  pEC50: < 4.52
  pIC50: < 4.52
Homo sapiens, A101D, Skin (Melanoma), read-out: Cell Count GI50
  GI50: > 30 µM
[5]
  pEC50: 5.04
  pIC50: 5.04
Homo sapiens, A 172, A172, CNS - Glioma, read-out: Cell Count GI50
  GI50: 8.93 µM
[6]
  pEC50: 4.55
  pIC50: 4.54
Homo sapiens, A253, A-253, Head and Neck, read-out: Cell Count GI50
  GI50: 28.7 µM
[7]
  pEC50: 4.87
  pIC50: 4.87
Homo sapiens, A388, Head and Neck, read-out: Cell Count GI50
  GI50: 13.4 µM
[8]
  pEC50: 4.88
  pIC50: 4.88
Homo sapiens, A498, A498, Kidney, read-out: Cell Count GI50
  GI50: 13.2 µM
Homo sapiens, A549, A549, Lung - NSCLC
  pEC50: 4.66
Homo sapiens, A549, A549, Lung - NSCLC, read-out: Cell Count GI50
  GI50: 21.9 µM
[9]
  pEC50: 4.97
  pIC50: 4.95
Homo sapiens, A673, A-673, Soft Tissue - Sarcoma, read-out: Cell Count GI50
  GI50: 11.1 µM
[10]
  pEC50: < 4.52
  pIC50: < 4.52
Homo sapiens, A704, A-704, Kidney, read-out: Cell Count GI50
  GI50: > 30 µM
[11]
  pEC50: 5.19
  pIC50: 5.19
Homo sapiens, A-375, A375, Skin (Melanoma), read-out: Cell Count GI50
  GI50: 6.44 µM
[12]
  pEC50: 4.95
  pIC50: 4.95
Homo sapiens, A-427, A427, Lung - NSCLC, read-out: Cell Count GI50
  GI50: 11.2 µM
[13]
  pEC50: < 4.52
  pIC50: < 4.52
Homo sapiens, A-431, A431, Head and Neck, read-out: Cell Count GI50
  GI50: > 30 µM
Homo sapiens, ACHN, Kidney
  pEC50: 5.06
  pIC50: 5.06
Homo sapiens, ACHN, Kidney, read-out: Cell Count GI50
  GI50: 8.76 µM
Homo sapiens, AGS, Stomach
  pEC50: 5.33
  pIC50: 5.33
Homo sapiens, AGS, Stomach, read-out: Cell Count GI50
  GI50: 4.69 µM
[14]
  pEC50: 4.95
  pIC50: 4.95
Homo sapiens, AN3-CA, AN3 CA, Female GU - Uterus, read-out: Cell Count GI50
  GI50: 11.1 µM
[15]
  pEC50: 5.02
  pIC50: 5.02
Homo sapiens, ARH-77, ARH-77, Myeloma, read-out: Cell Count GI50
  GI50: 9.57 µM
[16]
  pEC50: 4.85
  pIC50: 4.85
Homo sapiens, ASPC1, AsPC-1, Pancreas, read-out: Cell Count GI50
  GI50: 13.8 µM
[17]
  pEC50: 5.19
  pIC50: 5.19
Homo sapiens, AU565, AU565, Breast, read-out: Cell Count GI50
  GI50: 6.29 µM
Homo sapiens, BC-1, Lymphoma
  pEC50: 5.10
  pIC50: 5.10
Homo sapiens, BC-1, Lymphoma, read-out: Cell Count GI50
  GI50: 7.93 µM
[18]
  pEC50: 5.07
  pIC50: 5.07
Homo sapiens, BCP-1, BCP-1, Lymphoma, read-out: Cell Count GI50
  GI50: 8.4 µM
[19]
  pEC50: 5.16
  pIC50: 5.12
Homo sapiens, BE(2)-C, BE(2)C, CNS - Neuroblastoma, read-out: Cell Count GI50
  GI50: 7.48 µM
[20]
  pEC50: 5.10
  pIC50: 5.10
Homo sapiens, BFTC-905, BFTC-905, Bladder, read-out: Cell Count GI50
  GI50: 8.01 µM
[21]
  pEC50: 4.85
  pIC50: 4.85
Homo sapiens, BHT-101, BHT-101, Endocrine - Thyroid, read-out: Cell Count GI50
  GI50: 13.9 µM
[22]
  pEC50: 4.72
  pIC50: 4.72
Homo sapiens, BM-1604, BM-1604, Prostate, read-out: Cell Count GI50
  GI50: 18.9 µM
[23]
  pEC50: < 4.52
  pIC50: < 4.52
Homo sapiens, BPH-1, BPH1, Prostate, read-out: Cell Count GI50
  GI50: > 30 µM
[24]
  pEC50: 4.91
  pIC50: 4.90
Homo sapiens, BT-20, BT20, Breast, read-out: Cell Count GI50
  GI50: 12.3 µM
Homo sapiens, BT-474, BT474, Breast
  pEC50: < 4.52
